Test results as given in patent US20240158418A1 (C4 Therapeutics, Inc., priority 2021, published 2024).
Where two headings read alike, the source gives them in different places.

How the values were obtained:
[1] = target: T1, EGFR L858R-T790M-C797S (Homo sapiens, UniProt P00533, C797S/L858R/T790M); test: EGFR degradation, Total EGFR (L858R-specific) HTRF, NCI-H1975+CS; assay type: cell-based; details: 6 hours
T1 construct: generated using CRISPR technology to introduce the additional C797S mutation by Horizon Discovery; host or cells: NCI-H1975+CS (CRISPR knock-in of C797S)
T1 sequence (P00533 25-1210 T790M/C797S/L858R): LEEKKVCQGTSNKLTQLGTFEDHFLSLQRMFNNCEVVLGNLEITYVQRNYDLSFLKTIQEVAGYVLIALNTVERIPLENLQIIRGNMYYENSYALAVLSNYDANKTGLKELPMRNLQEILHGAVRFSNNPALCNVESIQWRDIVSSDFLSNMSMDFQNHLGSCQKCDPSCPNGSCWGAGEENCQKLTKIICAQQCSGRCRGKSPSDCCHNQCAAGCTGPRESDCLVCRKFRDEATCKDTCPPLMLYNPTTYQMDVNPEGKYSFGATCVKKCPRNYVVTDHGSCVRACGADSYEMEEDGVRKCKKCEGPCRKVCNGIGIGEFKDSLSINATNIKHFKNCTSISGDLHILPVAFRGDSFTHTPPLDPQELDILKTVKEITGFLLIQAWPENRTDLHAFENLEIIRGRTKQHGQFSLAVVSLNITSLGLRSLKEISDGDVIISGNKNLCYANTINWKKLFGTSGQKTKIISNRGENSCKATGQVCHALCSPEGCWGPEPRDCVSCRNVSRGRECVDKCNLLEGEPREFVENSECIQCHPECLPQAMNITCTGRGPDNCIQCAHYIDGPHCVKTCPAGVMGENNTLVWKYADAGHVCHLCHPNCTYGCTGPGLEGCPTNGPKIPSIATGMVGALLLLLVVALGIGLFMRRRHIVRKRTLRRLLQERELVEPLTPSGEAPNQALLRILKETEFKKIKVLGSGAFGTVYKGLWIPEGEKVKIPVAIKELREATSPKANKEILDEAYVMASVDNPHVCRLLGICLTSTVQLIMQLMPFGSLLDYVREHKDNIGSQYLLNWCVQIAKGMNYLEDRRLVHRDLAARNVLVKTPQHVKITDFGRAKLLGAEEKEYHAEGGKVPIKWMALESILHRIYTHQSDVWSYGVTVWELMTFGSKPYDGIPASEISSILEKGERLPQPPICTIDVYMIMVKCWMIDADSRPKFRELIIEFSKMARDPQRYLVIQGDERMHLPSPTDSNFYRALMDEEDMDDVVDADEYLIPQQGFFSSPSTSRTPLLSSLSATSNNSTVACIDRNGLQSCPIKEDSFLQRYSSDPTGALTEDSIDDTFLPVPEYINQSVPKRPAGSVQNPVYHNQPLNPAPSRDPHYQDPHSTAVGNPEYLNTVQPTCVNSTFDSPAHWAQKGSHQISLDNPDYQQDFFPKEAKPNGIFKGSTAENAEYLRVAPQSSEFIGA
Method in brief: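 Cells in RPMI 1640 + 10% FBS treated 6 h at 37°C with compound, 11-point half-log titration from 10 μM top, in duplicate. pY1068 and total EGFR read by HTRF (pan-EGFR antibody for wild-type A431; L858R-specific for mutants); IC50 for phospho inhibition, DC50 for 50% degradation.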

[2] = Tolerability / body weight change on oral dosing in tumor-bearing mice; assay type: in vivo
Description: (§1) Compound 1 was dosed at 20, 50, or 100 mg/kg/day and was formulated in PEG400 (20% v/v)+80% v/v SBECD (25% w/v) in ddH2O. […] Body weight and MTV were measured on a 2× weekly schedule. Statistical analysis was performed using a one-way ANOVA. Data are expressed as MTV±SEM.
as §1, with “1 and Compound 2 were” for “1 was”, “one-way ANOVA followed by Dunnett's multiple comparison test.” for “one-way ANOVA.”
2×10^5 luciferase-expressing NCI-H1975-luc tumor cells suspended in 2 μL RPMI-1640 media were injected into the right forebrain of female BALB/c nude mice. Tumor growth was monitored using imaging analysis. Mice were injected intraperitoneally with 15 mg/mL of D-luciferin and anesthetized with 1-2% isoflurane inhalation. 10 minutes post luciferin injection, mice were imaged using IVIS Lumina III (Perkin Elmer) and total bioluminescence signal (BLI, photons/s) was measured in a region of interest (ROI). BLI from ROI were quantified and used as an indicator of tumor burden. […] Body weight and MTV were measured on a 2× weekly schedule. Statistical analysis was calculated using the Mann-Whitney U test. Data are expressed as bioluminescent signal (photons/s). […]

[3] = H1975 + CS (L858R-T790M-C797S), read-out: tEGFR DC50
[4] = Table 9A, NCI-H1975+CS cells, Total EGFR HTRF, read-out: H1975+ CS EGFR DC50

SMILES	DC50 [1, 3]	DC50 [1, 4]	tolerability of oral dosing [2]
Cn1nc(N2CCC(=O)NC2=O)c2ccc([C@H]3CCN(CC(=O)N4CC5(C4)CN(c4ccc(-c6cc(F)c7c(c6)C(=O)N(C(C(=O)Nc6nccs6)c6ncn8c6CCC8)C7)cc4)C5)CC3(F)F)cc21 (stereo partly drawn) [Compound 2, 2-(6,7-dihydro-5H-pyrrolo[1,2-c]imidazol-1-yl)-2-[6-[4-[2-[2-[(4R)-4-[3-(2,4-dioxohexahydropyrimidin-1-yl)-1-methyl-indazol-6-yl]-3,3-difluoro-1-piperidyl]acetyl]-2,6-diazaspiro[3.3]heptan-6-yl]phenyl]-4-fluoro-1-oxo-isoindolin-2-yl]-N-thiazol-2-yl-acetamide]	19 nM	< 50 nM	well tolerated
O=C1CC[C@H](Nc2ccc(N3CCC(O)(CC(=O)N4CC5(C4)CN(c4ccc(-c6cc(F)c7c(c6)C(=O)N(C(C(=O)Nc6nccs6)c6ncn8c6CCC8)C7)cc4)C5)CC3)c(F)c2)C(=O)N1 (stereo partly drawn) [Compound 1, 2-(6,7-dihydro-5H-pyrrolo[1,2-c]imidazol-1-yl)-2-[6-[4-[2-[2-[1-[4-[[(3S)-2,6-dioxo-3-piperidyl]amino]-2-fluoro-phenyl]-4-hydroxy-4-piperidyl]acetyl]-2,6-diazaspiro[3.3]heptan-6-yl]phenyl]-4-fluoro-1-oxo-isoindolin-2-yl]-N-thiazol-2-yl-acetamide]	12 nM	< 50 nM	well tolerated
